In patent US9028845B2, “Chimeric immunomodulatory compounds and methods of using the same-IV” (Dynavax Technologies Corporation, priority 2001, dated 2015):
No end group written: not given here.

System: human PBMCs
Assay: Human PBMC cytokine response assay (IFN-γ and IFN-α in cell-free medium by ELISA), with or without cPLGA;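 for IFN-α (pg/ml) mean: 20 µg/mL compound for 24 hours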;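 for IFN-γ (pg/ml) mean: 20 µg/mL compound for 24 hours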
Format: cell-based
Conditions: for immunomodulatory activity (IFN-γ / IFN-α secretion), in words: used alone (no cPLGA)
[1] = Table 25, mean of donors 28250-28253
[2] = donor 28066, 20 ug/ml, 24 h, + PLGA = premixed with 100 μg/ml cPLGA
[3] = donor 28067, 20 ug/ml, 24 h, + PLGA = premixed with 100 μg/ml cPLGA
[4] = donor 28068, 20 ug/ml, 24 h, + PLGA = premixed with 100 μg/ml cPLGA
[5] = mean of Donors 3-4, 20 μg/ml, 24 h
[6] = mean of donors 28065-28068, 20 ug/ml, 24 h, + PLGA = premixed with 100 μg/ml cPLGA
[7] = Table 26, mean of donors 28313-28316
[8] = mean of donors 28057-28060, Table 16
[9] = mean of donors 28185-28188, Table 15
[10] = mean of donors 110, 112, 119, 120, Table 14

## 5′-AGATGAT-3′ [Compound P-4, reference compound]
Donor 3, 20 μg/ml, 24 h
  IFN-α (pg/ml) Donor 3: 0 pg/mL
  IFN-γ (pg/ml) Donor 3: 0 pg/mL
Donor 4, 20 μg/ml, 24 h
  IFN-α (pg/ml) Donor 4: 58 pg/mL
  IFN-γ (pg/ml) Donor 4: 3 pg/mL
Table 25, donor 28250
  IFN-a: 16 pg/mL
Table 25, donor 28250, polynucleotides/spacers at amounts equivalent to the CIC, spacers alone 9 uM
  IFN-g: 72 pg/mL
Table 25, donor 28251
  IFN-a: 16 pg/mL
  IFN-g: 1 pg/mL
Table 25, donor 28252
  IFN-a: 16 pg/mL
  IFN-g: 43 pg/mL
Table 25, donor 28253
  IFN-a: 16 pg/mL
  IFN-g: 1 pg/mL
[1]
  IFN-a mean: 16 pg/mL
  IFN-g mean: 29 pg/mL
Donor 28065 (high background), 20 ug/ml, 24 h, + PLGA = premixed with 100 μg/ml cPLGA, 1000 = outside assay limits
  IFN-γ (pg/ml) 28065: 93 pg/mL
Donor 28065, 20 ug/ml, 24 h, + PLGA = premixed with 100 μg/ml cPLGA
  IFN-α (pg/ml) 28065: 0 pg/mL
[2]
  IFN-α (pg/ml) 28066: 0 pg/mL
  IFN-γ (pg/ml) 28066: 1 pg/mL
[3]
  IFN-α (pg/ml) 28067: 9 pg/mL
  IFN-γ (pg/ml) 28067: 1 pg/mL
[4]
  IFN-α (pg/ml) 28068: 0 pg/mL
  IFN-γ (pg/ml) 28068: 1 pg/mL
[5]
  IFN-α (pg/ml) mean: 29 pg/mL
  IFN-γ (pg/ml) mean: 1 pg/mL
[6]
  IFN-α (pg/ml) mean: 2 pg/mL
  IFN-γ (pg/ml) mean: 24 pg/mL
  immunomodulatory activity (IFN-γ / IFN-α secretion), in words: did not have immunomodulatory activity

## (5′-TCGACGT-3′-HEG)x-Ficoll400 (X range = 150-250, ave. 185) See example 49 (not fully specified (C-terminus); cysteine pairing not given here; also: about 185 copies attached to Ficoll400) [Compound C-137]
Table 26, donor 28313
  IFN-a: 3612 pg/mL
  IFN-g: 1 pg/mL
Table 26, donor 28314
  IFN-a: 5468 pg/mL
  IFN-g: 22 pg/mL
Table 26, donor 28315
  IFN-a: 624 pg/mL
  IFN-g: 13 pg/mL
Table 26, donor 28316
  IFN-a: 4000 pg/mL
  IFN-g: 54 pg/mL
Table 26, mean multiplied by 4
  IFN-g mean ×4: 90 pg/mL
[7]
  IFN-a mean: 3426 pg/mL
  IFN-g mean: 22 pg/mL
Used alone
  IFN-α induction, in words: significant stimulation of IFN-α
  immunomodulatory activity (IFN-γ / IFN-α secretion), in words: striking activity in the cytokine response assays

## 5′-TCGTCG-3′-(HEG)4-5′-T-3′ [Compound C-16]
Donor 28057, Table 16
  IFN-α: 0 pg/mL
  IFN-γ: 1 pg/mL
Donor 28058, Table 16
  IFN-α: 0 pg/mL
  IFN-γ: 2 pg/mL
Donor 28059, Table 16
  IFN-α: 0 pg/mL
  IFN-γ: 0 pg/mL
Donor 28060, Table 16
  IFN-α: 0 pg/mL
  IFN-γ: 6 pg/mL
  activity when formulated with cPLGA, in words: all had significant activity when formulated on cPLGA
  immunomodulatory activity (IFN-γ / IFN-α secretion), in words: None of the CICs was active when used alone
[8]
  IFN-α (pg/ml) mean: 0 pg/mL
  IFN-γ (pg/ml) mean: 2 pg/mL

## (5′-TCGAACGTTCGA-3′ (SEQ ID NO: 155)-HEG)2-glycerol-HEG-5′-TCGAACGTTCGA-3′ (SEQ ID NO: 155) (three copies via HEG-glycerol branching, chemistry not fully specified) [Compound C-173]
Example 58, 0.8 ug/ml, donor 1
  IFN-α: 272 pg/mL
Example 58, 0.8 ug/ml, donor 2
  IFN-α: 1293 pg/mL
Example 58, 0.8 ug/ml, donor 3
  IFN-α: 1138 pg/mL
Example 58, 0.8 ug/ml, donor 4
  IFN-α: 2547 pg/mL
Example 58, 0.8 ug/ml, mean of four individuals
  IFN-α mean: 1312 pg/mL
Example 58, 4 ug/ml, donor 1
  IFN-α: 3828 pg/mL
Example 58, 4 ug/ml, donor 2
  IFN-α: 2917 pg/mL
Example 58, 4 ug/ml, donor 3
  IFN-α: 2197 pg/mL
Example 58, 4 ug/ml, donor 4
  IFN-α: 3563 pg/mL
Example 58, 4 ug/ml, mean of four individuals
  IFN-α mean: 3126 pg/mL
Example 58, 20 ug/ml, donor 1
  IFN-α: 14381 pg/mL
Example 58, 20 ug/ml, donor 2
  IFN-α: 8060 pg/mL
Example 58, 20 ug/ml, donor 3
  IFN-α: 66 pg/mL
Example 58, 20 ug/ml, donor 4
  IFN-α: 299 pg/mL
Example 58, 20 ug/ml, mean of four individuals
  IFN-α mean: 5701 pg/mL
Low doses (e.g., 0.8 ug/ml), four individuals
  IFN-α from human PBMC compared with parent oligonucleotide P-17, in words: induce significantly more IFN-α

## 5′-TCG-3′-(ab)3-5′-T-3′ [Compound C-91]
Donor 28185, Table 15
  IFN-a: 9 pg/mL
  IFN-g: 3 pg/mL
Donor 28186, Table 15
  IFN-a: 46 pg/mL
  IFN-g: 4 pg/mL
Donor 28187, Table 15
  IFN-a: 37 pg/mL
  IFN-g: 6 pg/mL
Donor 28188, Table 15
  IFN-a: 4 pg/mL
  IFN-g: 7 pg/mL
  activity when formulated with cPLGA, in words: significant activity when formulated on cPLGA
  immunomodulatory activity (IFN-γ / IFN-α secretion), in words: neither CIC was active on its own
[9]
  IFN-a (pg/ml) mean: 24 pg/mL
  IFN-g (pg/ml) mean: 5 pg/mL
Mean ×2, Table 15
  IFN-a (pg/ml) ×2: 48 pg/mL
Mean ×4, Table 15
  IFN-g (pg/ml) ×4: 20 pg/mL

## 5′-TCGTCGT-3′-HEG-5′-TCGTCGT-3′-HEG-5′-TCGTCGT-3′ [Compound C-42]
Table 10, donor 28042
  IFN-α: 0 pg/mL
  IFN-γ: 198 pg/mL
Table 10, donor 28043
  IFN-α: 29 pg/mL
  IFN-γ: 1067 pg/mL
Table 10, donor 28044
  IFN-α: 24 pg/mL
  IFN-γ: 4000 pg/mL
Table 10, donor 28045
  IFN-α: 0 pg/mL
  IFN-γ: 37 pg/mL
Table 10, mean of donors
  IFN-α mean: 13 pg/mL
  IFN-γ mean: 1326 pg/mL
Donor 110, Table 14
  IFN-α: 250 pg/mL
  IFN-γ: 1508 pg/mL
Donor 112, Table 14
  IFN-α: 26 pg/mL
  IFN-γ: 204 pg/mL
Donor 119, Table 14
  IFN-α: 156 pg/mL
  IFN-γ: 56 pg/mL
Donor 120, Table 14
  IFN-α: 36 pg/mL
  IFN-γ: 56 pg/mL
[10]
  IFN-α (pg/ml) mean: 117 pg/mL
  IFN-γ (pg/ml) mean: 456 pg/mL
